# Biological target: T1, SpoVD (CdSpoVD, CDR20291_2544; soluble construct SpovD 38-583) (Clostridioides difficile, UniProt A0A9R0BM53)
# T1 construct: pETGSTSUMO vector (NheI/XhoI), E. coli BL21(DE3) pLysS; fusion tag removed with ULP1
# Test: Bacillin (bocillin) inhibition assay, SpoVD
# Type: biochemical
# Conditions: not given
# Description: FIG. 2 is a table of IC50 values of select $-lactam antibiotics against SpoVD, their percentage inhibition of sporulation, and the concentration at which they were tested (½ MIC).
# FIGS. 4A-4F show chemical structures of DPO sporulation inhibitors, their biochemical inhibition against SpoVD and their in vitro sporulation inhibition, wherein * indicates >50%, ** indicates >90%, and ***>95%.
# (§1) Reactions were performed in a 96-well polystyrene plate with a final volume of 60 μl at 37° C. in 1× tris-buffered saline (20 mM Tris, 150 mM NaCl). […] Protein was then diluted and added to the well for a final concentration of 1 μM and incubated for 15 minutes at 37° C. 1 μL of bocillin (BOCILLIN™ FL Penicillin, Sodium Salt, Thermo Fisher Scientific) was added to each well for a final concentration of 20 μM, and incubated for 10 minutes at 37° C. Reactions were killed with 10 μL of 6×SDS loading buffer and pooled or directly loaded onto a 15-well Novex Wedgewell 8% Tris-Glycine Gels and ran at 175 V for ˜1 hour. Gels were then imaged (Biorad) for 6 seconds with the fluorescein blot filter setting and analyzed using ImageJ. All values were normalized to background intensity and divided by the average of three control intensities (no inhibitor) for % inhibition value. Assays were performed in duplicate or triplicate and IC50 values were calculated using a 3-parameter nonlinear regression.
# (§2) The coding sequence corresponding to the soluble constructs of CDR20291_1067 (PBP3), CDR20291_0985 (PBP2) and CDR20291_2544 (CdSpoVD) were amplified from C. difficile R20291 genomic DNA The expression vector was modified from pETGST, in which the thrombin cleavage site was replaced by TEV (named pETGSTTEV) or ULP1 (named pETGSTSUMO) cleavage site. The vector was digested and the PCR fragments for each protein was inserted into the multi-clone site accordingly. SpovD 38-583 inserted into the NheI/XhoI site of the pETGSTSUMO vector. Cloned vector was then transformed into BL21(DE3) pLysS Escherichia coli (E. coli). Standard overnight cultures were grown in LB media containing chloramphenicol and kanamycin and used to inoculate 1 L LB cultures.
# (§3) Cultures were grown until the optical density (OD600) reached ˜0.7. Protein expression was then induced with 0.5 mM isopropyl-β-d-thiogalactopyranoside (IPTG) overnight at 20° C. Cells were harvested via centrifugation at 4000×g for 10 minutes at 4° C. The cell pellet was suspended with a solution of 20 mM Tris pH 8.0, 200 mM NaCl, 20 mM imidazole, and one dissolved Thermo Scientific™ Pierce Protease Inhibitor Tablets. Cells were lysed with a sonicator using a 10 second sonication/15 second rest cycle for 15 minutes. Cell lysate was centrifuged at 45,000×g for 35 minutes and supernatant was loaded onto a HisTrap affinity column (GE Healthcare). A linear gradient of buffer B (20 mM Tris pH 8.0, 300 mM NaCl, 500 mM imidazole, and 10% glycerol) was applied to elute the recombinant protein which usually occurred at 30% buffer B. These fractions were pooled and buffer exchanged three times into protease buffer (20 mM Tris pH 8.0, 10% glycerol) using an Amicon Ultra centrifugal filter (Sigma-Aldrich). Purified His6-tagged TEV protease was added to all proteins at a 1:20 ratio except for CdSpoVD and incubated overnight at 4° C. Pure His6-tagged ULP1 protease was added to CdSpoVD at 1:20 ratio and incubated overnight at 4° C. The digested protein was re-loaded onto the HisTrap affinity column. Flowthrough was collected, concentrated, and loaded to a HiLoad 16/60 Superdex 75 size exclusion column (GE Healthcare) where it ran at a flow rate of 0.5 ml/min. Peak fractions were combined and purity assessed (>95%) with gel-electrophoresis. The identity of each enzyme was independently characterized with gel-electrophoresis, native-mass spectrometry, bocillin or nitrocefin binding, and/or X-ray crystallography.
# T1 sequence (A0A9R0BM53 entry or part of it): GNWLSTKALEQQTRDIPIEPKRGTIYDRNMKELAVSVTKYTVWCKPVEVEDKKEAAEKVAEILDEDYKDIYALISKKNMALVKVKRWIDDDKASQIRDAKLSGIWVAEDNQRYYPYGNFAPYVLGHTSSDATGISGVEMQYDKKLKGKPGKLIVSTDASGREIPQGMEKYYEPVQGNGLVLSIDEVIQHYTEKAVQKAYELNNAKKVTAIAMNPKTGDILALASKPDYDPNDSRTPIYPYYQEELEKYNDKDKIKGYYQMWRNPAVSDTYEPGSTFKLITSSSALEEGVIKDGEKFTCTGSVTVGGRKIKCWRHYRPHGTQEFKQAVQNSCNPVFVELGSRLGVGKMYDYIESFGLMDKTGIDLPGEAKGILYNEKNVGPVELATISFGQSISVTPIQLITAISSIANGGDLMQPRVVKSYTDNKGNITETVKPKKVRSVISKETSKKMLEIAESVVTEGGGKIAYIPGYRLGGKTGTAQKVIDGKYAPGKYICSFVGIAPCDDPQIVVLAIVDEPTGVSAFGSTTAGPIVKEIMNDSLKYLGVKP
row,SMILES,IC50 [µM]
1,C[C@H]1[C@H](NC(=O)/C(=N\OC(C)(C)C(=O)O)c2csc(N)n2)C(=O)N1S(=O)(=O)O [Aztreonam],1.36
2,CC(=O)OCC1=C(C(=O)O)N2C(=O)[C@@H](NC(=O)Cc3cccs3)[C@H]2SC1 [Cefalothin],0.27
3,CC(C)(O/N=C(\C(=O)N[C@@H]1C(=O)N2C(C(=O)[O-])=C(C[n+]3ccccc3)CS[C@H]12)c1csc(N)n1)C(=O)O [Ceftazidime],2.47
4,CC1(C)S[C@@H]2[C@H](NC(=O)[C@H](N)c3ccccc3)C(=O)N2[C@H]1C(=O)O [Ampicillin],2.54

# Same assay, conditions: FIG. 2; 1 μM protein, 15 min preincubation at 37° C., 20 μM bocillin; read-out: SpoVD IC50
row,IC50 [µM],SMILES
1,62.5,Nc1nc(/C(=N/O)C(=O)N[C@@H]2C(=O)N3C(C(=O)O)=C(/C=C4\CCN([C@@H]5CCNC5)C4=O)CS[C@H]23)ns1 [Ceftobiprole]
2,63.8,O=C(CNC(=O)[C@@H]1CC[C@@H]2CN1C(=O)N2OS(=O)(=O)O)c1ccccc1 [Spo8]
3,165,NC(=O)[C@@H]1CC[C@@H]2CN1C(=O)N2OS(=O)(=O)O [Avibactam]
4,6.12,Cc1onc(-c2ccccc2Cl)c1C(=O)N[C@@H]1C(=O)N2[C@@H]1SC(C)(C)[C@@H]2C(=O)O [Cloxacillin]
5,103,O=C(Nc1ccccc1)[C@@H]1CC[C@@H]2CN1C(=O)N2OS(=O)(=O)O [Spo6]
6,0.94,CO[C@@]1(NC(=O)Cc2cccs2)C(=O)N2C(C(=O)O)=C(COC(N)=O)CS[C@@H]21 [Cefoxitin]
7,53.1,O=C(NCc1ccccc1)[C@@H]1CC[C@@H]2CN1C(=O)N2OS(=O)(=O)O [Spo7]
8,7.83,CO/N=C(\C(=O)N[C@@H]1C(=O)N2C(C(=O)O)=C(COC(C)=O)CS[C@H]12)c1csc(N)n1 [Cefotaxime]

# Same assay, conditions: FIGS. 4A-4F; 1 μM protein, 15 min preincubation at 37° C., 20 μM bocillin; read-out: SpoVD IC50
row,IC50 [µM],SMILES
1,3.92,O=C(Nc1ccccc1)[C@@H](Cc1ccccc1)NC(=O)[C@@H]1CC[C@@H]2CN1C(=O)N2OS(=O)(=O)O [Spo10]
2,13,O=C(Nc1ccccc1)[C@H](NC(=O)[C@@H]1CC[C@@H]2CN1C(=O)N2OS(=O)(=O)O)c1ccccc1 [Spo9]

# Biological target: T2, PBP3 (CDR20291_1067; soluble construct) (Clostridioides difficile, UniProt A0A9R0CE13)
# T2 construct: modified pETGST vector with TEV site, E. coli BL21(DE3) pLysS; tag removed with TEV
# Test: Bacillin (bocillin) inhibition assay, PBP3
# Type: biochemical
# Conditions: FIGS. 6A-6F; 1 μM protein, 15 min preincubation at 37° C., 20 μM bocillin
# Description: FIGS. 6A-6F show the crystal structure of PBP3 and the chemical structures of DBO sporulation inhibitors, wherein * indicates >50%, ** indicates >90%, and ***>95%.
# as §1, §2
# as §3, with “The identity of each enzyme was independently characterized with gel-electrophoresis, native-mass spectrometry, bocillin or nitrocefin binding, and/or X-ray crystallography.” left out
# T2 sequence (A0A9R0CE13 entry or part of it): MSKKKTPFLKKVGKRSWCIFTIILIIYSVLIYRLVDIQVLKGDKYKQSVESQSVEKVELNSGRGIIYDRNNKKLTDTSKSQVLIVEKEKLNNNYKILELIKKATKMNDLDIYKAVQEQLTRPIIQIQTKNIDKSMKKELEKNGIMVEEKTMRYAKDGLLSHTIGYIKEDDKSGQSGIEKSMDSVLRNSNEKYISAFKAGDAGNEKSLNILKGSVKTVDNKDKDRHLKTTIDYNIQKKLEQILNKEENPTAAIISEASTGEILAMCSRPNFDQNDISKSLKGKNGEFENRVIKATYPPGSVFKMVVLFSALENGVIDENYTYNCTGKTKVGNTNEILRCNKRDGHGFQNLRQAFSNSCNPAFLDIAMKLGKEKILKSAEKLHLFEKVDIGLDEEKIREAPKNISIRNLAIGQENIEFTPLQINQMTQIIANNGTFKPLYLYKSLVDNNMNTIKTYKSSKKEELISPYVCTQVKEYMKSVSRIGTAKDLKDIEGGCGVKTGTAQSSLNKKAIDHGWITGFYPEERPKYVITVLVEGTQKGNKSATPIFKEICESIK
row,IC50 [µM],SMILES
1,4.86,O=C(Nc1ccccc1)[C@H](NC(=O)[C@@H]1CC[C@@H]2CN1C(=O)N2OS(=O)(=O)O)c1ccccc1 [Spo9]
2,2.24,O=C(Nc1cccc2ccccc12)[C@@H]1CC[C@@H]2CN1C(=O)N2OS(=O)(=O)O [Spo11]
3,0.69,O=C(Nc1ccc(-n2cccn2)cc1)[C@@H]1CC[C@@H]2CN1C(=O)N2OS(=O)(=O)O [Spo12]

# The next lines start with the compound.
row,SMILES,IC50 [µM]
1,NC(=O)[C@@H]1CC[C@@H]2CN1C(=O)N2OS(=O)(=O)O [Avibactam],5.38
2,O=C(Nc1ccccc1)[C@@H]1CC[C@@H]2CN1C(=O)N2OS(=O)(=O)O [Spo6],2.01
